{"source": "paper PMC9553667", "about": "“Pharmacokinetic Analysis of Diosgenin in Rat Plasma by a UPLC-MS/MS Approach” (Journal of Analytical Methods in Chemistry, 2022)", "key": {"[1]": {"test": "in vivo", "design": "species or system Male Sprague-Dawley rats", "settings": "rat", "procedure": "Liquid chromatography was performed using a UPLC system (Waters Corp., Milford, MA, USA) interfaced to a Q-Trap 5500 triple-quadruple mass spectrometer (AB SCIEX, Beijing, China) equipped with an electrospray ionization (ESI) source, as previously described. The isolation was performed on a Waters ACQUITY UPLC BEH C18 rapid resolution high definition column (2.1 × 50 mm, 1.7 μm) at 35°C. The temperature of the UPLC autosampler was 4°C. The mobile phase was mixed with acetonitrile and water (80 : 20, v/v, containing 0.03% formic acid in water). The flow rate was run at 0.3 ml/min. The injection volume was 2 μl, with a total running time of 5 min.\nThe positive ion multiple reaction monitoring (MRM) mode was used for quantification analysis in the mass analyzers, with the transitions of m/z 415.2⟶271.2 for diosgenin with fragment or voltage of 71.96 V and 295.2⟶277.1 for the IS with fragment or voltage of 120 V. The collision voltages for diosgenin and IS were 23.03 and 25.92 eV, respectively. The other settings were as follows: capillary voltage, 5.5 kV; source temperature, 500°C; curtain gas, 35 Psi; GS1, 50 Psi; GS2, 50 Psi.\nBlank plasma samples were obtained from control Sprague-Dawley rats (n = 6). Briefly, 50 μl of the IS solution and 50 μl of plasma were added to a 0.5-ml Eppendorf tube and vortex mixed for 30 s. Methanol-acetonitrile (250 μl; 50 : 50, v/v) was added to the Eppendorf tube, and then, the sample was vortex mixed for 2 min. After centrifuging at 15,000 rpm for 15 min, the supernatants were injected into the UPLC-MS/MS system.\nMale Sprague-Dawley rats (n = 12) weighing 180–220 g were supplied by Beijing Vital River Laboratory Animal Technology Co., Ltd. (Beijing, China; license number SCXK2018-0006). According to the ARRIVE guidelines, all experimental rats were kept under appropriate conditions, including proper humidity, temperature, light, diet, and water. Before starting the experiments, the rats were domesticated for 10 days under laboratory conditions to minimize their suffering. All experimental procedures were performed according to the Animal Care and Use Committee of Chengde Medical University (ethical approval no. CDMULAC-20180410016; Chengde, China). The rats were divided into two groups and were orally administered 100 mg/kg diosgenin and ASD (equivalent to 100 mg/kg diosgenin) suspended in a 0.5% w/v CMC–Na aqueous solution.\nThe caged rats were fasted (water provided ad libitum) for 12 h before the experiment. Before and after single administration of diosgenin, 0.15 ml blood was collected from the inner canthus under 2.5% isoflurane anesthesia in a heparinized blood collection vessel. The blood collection time points were 0.083, 0.25, 0.5, 0.75, 1, 2, 3, 4, 6, 8, 12, 24, 36, 48, and 72 h. Plasma was obtained after centrifugation for 15 min at 15,000 rpm and then stored at –80°C until analysis.\nThe pharmacokinetic parameters were calculated using noncompartmental pharmacokinetics data analysis software of DAS 3.0 (Drug and Statistics software, Drug Clinical Research Center, Shanghai University of Traditional Chinese Medicine, Shanghai, China). Relative bioavailability (F) was calculated according to the following formula:(1) F%=AUC0⟶∞diosgenin ASD/AUC0⟶∞diosgenin×100%."}, "[2]": {"assay_type": "in vitro ADME, rat", "settings": "n = 6; for Measured concentration, autosampler stability: processed rat plasma, autosampler 4°C for 24 h; for Measured concentration, short-term stability / Measured concentration, freeze-thaw stability / Measured concentration, long-term stability: rat plasma; for Measured concentration, short-term stability: 25°C for 8 h; for Measured concentration, long-term stability: −20°C for 30 days", "procedure": "Standard working solutions of diosgenin and IS were prepared by diluting stock solutions (100 μg/ml) with methanol. A series of calibration standards and QC working solutions were serially diluted with methanol from the standard solution. The working solutions were diluted with drug-free rat plasma at concentrations of 0.5, 1, 5, 50, 200, 1000, and 1,500 ng/ml. Similarly, the QC samples were made up at 5, 50, and 1,000 ng/ml, and IS was 42 ng/ml. All samples were immediately stored at −20°C.\nQC samples in rat plasma at three concentrations were analyzed by assessing the stability of diosgenin under four conditions. Long-term stability was investigated by assaying QC samples kept at −20°C for 30 days. The short-term stability of QC samples was assessed for 8-h storage at 25°C. Freeze-thaw stability was determined by analyzing QC samples after three freeze-thaw cycles (−40°C to 25°C). Postpreparative stability was evaluated after a 24-h placement of QC samples in an autosampler at 4°C after preparation. When the accuracy and the precision were both within ±15% after the four tests, the stabilities were guaranteed."}, "[3]": {"assay_type": "in vitro ADME, rat", "settings": "–20°C for 30 days, 25°C for 8 h, three freeze-thaw cycles, 4°C in an autosampler for 12 h"}, "[4]": {"design": "method as in PMID 24954725", "settings": "rats; cited from earlier work"}, "[5]": {"design": "method as in PMID 23073665, PMID 20671764", "settings": "cited from earlier work"}, "[6]": {"settings": "male, Sprague-Dawley, po, 100 mg/kg"}}, "note": "Read-outs that look alike come from different tables or passages of the source."}
{"smiles": "C[C@@H]1CC[C@@]2(OC1)O[C@H]1C[C@H]3[C@@H]4CC=C5C[C@@H](O)CC[C@]5(C)[C@H]4CC[C@]3(C)[C@H]1[C@@H]2C", "note": "[Diosgenin]", "values": [{"measurement": "CL/F", "setting": "[1]; male, Sprague-Dawley, oral, 100 mg/kg diosgenin or equivalent, mean ± SD, n = 6, read-out: CLz/F (converted)", "result": 207, "unit": "mL/min/kg"}, {"measurement": "Vd/F", "setting": "[1]; male, Sprague-Dawley, oral, 100 mg/kg diosgenin or equivalent, mean ± SD, n = 6, read-out: Vz/F", "result": "231 ± 161", "unit": "L/kg"}, {"measurement": "half-life", "setting": "[1]; male, Sprague-Dawley, oral, 100 mg/kg diosgenin or equivalent, mean ± SD, n = 6, read-out: t1/2z (converted)", "result": "740 ± 181", "unit": "min"}, {"measurement": "Cmax", "setting": "[1]; [6]", "result": "480 ± 121", "unit": "ng/mL"}, {"measurement": "MRT last", "setting": "[1]; [6]", "result": "22.8 ± 5.55", "unit": "h"}, {"measurement": "Tmax", "setting": "[1]; [6]", "result": "8.73 ± 5.74", "unit": "h"}, {"measurement": "AUC0-t", "setting": "[1]; po, 100 mg/kg", "result": "9,302.27 ± 5,013.38 μg/l∗h"}, {"measurement": "AUC0-∞", "setting": "[1]; po, 100 mg/kg", "result": "9,598.01 ± 5,151.91 μg/l∗h"}, {"measurement": "Measured concentration, autosampler stability", "setting": "[2]; indicated 5 ng/ml", "result": "5.32 ± 0.37", "unit": "ng/mL"}, {"measurement": "Measured concentration, autosampler stability", "setting": "[2]; indicated 50 ng/ml", "result": "50.59 ± 3.69", "unit": "ng/mL"}, {"measurement": "Measured concentration, autosampler stability", "setting": "[2]; indicated 1000 ng/ml", "result": "1001.01 ± 62.63", "unit": "ng/mL"}, {"measurement": "Measured concentration, short-term stability", "setting": "[2]; indicated 5 ng/ml", "result": "5.41 ± 0.33", "unit": "ng/mL"}, {"measurement": "Measured concentration, short-term stability", "setting": "[2]; indicated 50 ng/ml", "result": "50.23 ± 2.56", "unit": "ng/mL"}, {"measurement": "Measured concentration, short-term stability", "setting": "[2]; indicated 1000 ng/ml", "result": "1000.88 ± 44.34", "unit": "ng/mL"}, {"measurement": "Measured concentration, freeze-thaw stability", "setting": "[2]; three freeze-thaw cycles (−40°C to 25°C), indicated 5 ng/ml", "result": "5.98 ± 0.35", "unit": "ng/mL"}, {"measurement": "Measured concentration, freeze-thaw stability", "setting": "[2]; three freeze-thaw cycles, indicated 50 ng/ml", "result": "51.69 ± 4.36", "unit": "ng/mL"}, {"measurement": "Measured concentration, freeze-thaw stability", "setting": "[2]; three freeze-thaw cycles, indicated 1000 ng/ml", "result": "1002.9 ± 54.44", "unit": "ng/mL"}, {"measurement": "Measured concentration, long-term stability", "setting": "[2]; indicated 5 ng/ml", "result": "5.99 ± 0.28", "unit": "ng/mL"}, {"measurement": "Measured concentration, long-term stability", "setting": "[2]; indicated 50 ng/ml", "result": "50.02 ± 3.72", "unit": "ng/mL"}, {"measurement": "Measured concentration, long-term stability", "setting": "[2]; indicated 1000 ng/ml", "result": "1001.65 ± 42.42", "unit": "ng/mL"}, {"measurement": "Stability in plasma under the storage conditions", "setting": "[3]", "result": "remained stable"}, {"measurement": "Absolute bioavailability", "setting": "[4]", "result": "approximately 7%"}, {"measurement": "Aqueous solubility", "setting": "[5]", "result": "poor aqueous solubility"}]}
